Assay results as given in PubChem BioAssay (NCI).
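Briefly, cells in 96-well plates were exposed to five compound concentrations for 48 h, and endpoints were estimated by linear interpolation. At the GI50, growth is halved. TGI: total growth inhibition.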

Columns and labels:
Test in all cases: growth of human tumour cells (NCI), 48 h
SF-539 CNS = test system: SF-539 CNS
RXF 393 renal = test system: RXF 393 renal
HL-60(TB) leukemia = test system: HL-60(TB) leukemia
CCRF-CEM leukemia = test system: CCRF-CEM leukemia
786-0 renal = test system: 786-0 renal
OVCAR-3 ovarian = test system: OVCAR-3 ovarian
DU-145 prostate = test system: DU-145 prostate
UO-31 renal = test system: UO-31 renal
HCT-15 colon = test system: HCT-15 colon
NCI-H460 lung = test system: NCI-H460 lung
SNB-19 CNS = test system: SNB-19 CNS
OVCAR-5 ovarian = test system: OVCAR-5 ovarian
NCI-H522 lung = test system: NCI-H522 lung
M14 melanoma = test system: M14 melanoma
UACC-257 melanoma = test system: UACC-257 melanoma
SW-620 colon = test system: SW-620 colon
SK-MEL-2 melanoma = test system: SK-MEL-2 melanoma
COLO 205 colon = test system: COLO 205 colon
HOP-62 NSCLC = test system: HOP-62 NSCLC
SK-MEL-5 melanoma = test system: SK-MEL-5 melanoma
T-47D breast = test system: T-47D breast
SR leukemia = test system: SR leukemia
SF-268 CNS = test system: SF-268 CNS
HS 578T breast = test system: HS 578T breast
MDA-MB-231 breast = test system: MDA-MB-231 breast
A498 renal = test system: A498 renal
OVCAR-4 ovarian = test system: OVCAR-4 ovarian
BT-549 breast = test system: BT-549 breast
MCF7 breast = test system: MCF7 breast

COC(=O)[C@@H]1CCCN1C(=O)[C@@H]1CCCN1C(=O)[C@H](Cc1ccccc1)NC(=S)Nc1cc(C(F)(F)F)cc(C(F)(F)F)c1
TGI (SF-539 CNS): > 100 µM
GI50 (RXF 393 renal): 2.19 µM
TGI (RXF 393 renal): 7.41 µM
GI50 (HL-60(TB) leukemia): 2.53 µM
TGI (HL-60(TB) leukemia): 5.49 µM
GI50 (CCRF-CEM leukemia): 3.54 µM
TGI (CCRF-CEM leukemia): > 100 µM
GI50 (786-0 renal): 4.47 µM
TGI (786-0 renal): > 100 µM
GI50 (OVCAR-3 ovarian): 3.43 µM
TGI (OVCAR-3 ovarian): 9.98 µM
GI50 (DU-145 prostate): 5.06 µM
TGI (DU-145 prostate): > 100 µM
GI50 (UO-31 renal): 3.3 µM
TGI (UO-31 renal): > 100 µM
GI50 (HCT-15 colon): 3.8 µM
TGI (HCT-15 colon): > 100 µM
GI50 (NCI-H460 lung): 3.4 µM
TGI (NCI-H460 lung): > 100 µM
GI50 (SNB-19 CNS): 3.77 µM
TGI (SNB-19 CNS): > 100 µM
GI50 (OVCAR-5 ovarian): 3.8 µM
TGI (OVCAR-5 ovarian): 42.4 µM
GI50 (NCI-H522 lung): 3.17 µM
TGI (NCI-H522 lung): 9.6 µM
GI50 (M14 melanoma): 3.7 µM
TGI (M14 melanoma): > 100 µM
GI50 (UACC-257 melanoma): 2.92 µM
TGI (UACC-257 melanoma): 11.4 µM
GI50 (SW-620 colon): 5.11 µM
TGI (SW-620 colon): > 100 µM
GI50 (SK-MEL-2 melanoma): 2.93 µM
TGI (SK-MEL-2 melanoma): 7.39 µM
GI50 (COLO 205 colon): 2.43 µM
TGI (COLO 205 colon): 5.85 µM
GI50 (HOP-62 NSCLC): 4.56 µM
TGI (HOP-62 NSCLC): 72.5 µM
GI50 (SK-MEL-5 melanoma): 2.6 µM
TGI (SK-MEL-5 melanoma): 9.18 µM
GI50 (T-47D breast): 4.27 µM
TGI (T-47D breast): > 100 µM
GI50 (SR leukemia): 3.69 µM
TGI (SR leukemia): 24.9 µM
GI50 (SF-268 CNS): 4.83 µM
TGI (SF-268 CNS): > 100 µM
GI50 (HS 578T breast): 4.49 µM
TGI (HS 578T breast): > 100 µM
GI50 (MDA-MB-231 breast): 2.04 µM
TGI (MDA-MB-231 breast): 5.6 µM
GI50 (A498 renal): 2.55 µM
TGI (A498 renal): 22.9 µM
GI50 (OVCAR-4 ovarian): 4.29 µM
TGI (OVCAR-4 ovarian): > 100 µM
GI50 (BT-549 breast): 4.39 µM
TGI (BT-549 breast): 71.5 µM
GI50 (MCF7 breast): 3.08 µM
TGI (MCF7 breast): > 100 µM
